In the OPERA property sets (Mansouri et al. 2018):
≈ marks a conversion by molar mass, not a printed value.

Conditions: not given

Compound	logP	solubility
O=[N+]([O-])c1cc(Cl)c(Cl)c(Cl)c1Cl	3.93	–
COc1ccc(OCCN(C)C)cc1	1.23	–
CC(=O)Oc1ccc(NC(=O)C(Cl)Cl)cc1	1.9	–
NS(=O)(=O)c1cc2c(cc1C(F)(F)F)NC(Cc1ccccc1)NS2(=O)=O (centres undefined)	1.89	–
CC(=O)Nc1ccc2nc(S(N)(=O)=O)sc2c1	0.86	–
CC(=O)OCN1C(=O)C(C)=C(C)C1=O	0.65	–
Clc1ccc(-c2ccccc2Cl)cc1Cl	5.87	–
CCCCCN(CCCCC)N=O	3.86	–
CN(C)P1(=O)N(C)CCN1C	0.02	–
CCN(CC)CCNC(=O)c1ccc(N)c(Cl)c1	1.7	–
C1=C(c2ccccc2)CCNC1	1.99	–
CC(=O)OCN1Cc2ccccc2C1=O	0.99	–
CN(C)c1ccc2cc3ccc(N(C)C)cc3nc2c1	–	2.64 mM (≈ 700 µg/mL)
N[C@@H](Cc1ccc(O)c(O)c1)C(=O)OCCOc1ccccc1	1.51	–
Cc1ccc2ccc3ccccc3c2c1	5.15	–
c1ccc2sc(SN(C3CCCCC3)C3CCCCC3)nc2c1	4.8	0.000163 mM (≈ 0.0564 µg/mL)
CC(O)COC(=O)[C@@H](N)Cc1ccc(O)c(O)c1 (some centres undefined)	-0.49	–
C=CC(=O)NCCCN(CCO)CCO	-0.6	–
CC(=O)Oc1ccc(OCCN(C)C)cc1C	1.64	–
O=C1c2ccccc2C(=O)c2c(O)cccc21	3.52	–
C[C@H](CCC(=O)O)[C@H]1CC[C@H]2[C@@H]3[C@H](O)C[C@@H]4C[C@H](O)CC[C@]4(C)[C@H]3C[C@H](O)[C@]12C	2.02	–
Cc1ccc(S(=O)(=O)CC(=O)c2ccccc2)cc1	2.45	–
CSc1nc2ccccc2s1	3.15	–

Compound	logP	solubility
COc1ccc(Cl)c(Cl)c1Cl	3.74	–
CCCCCCCCCC(C)=O	4.09	–
Clc1ccc(Nc2cc3nc4ccccc4n(-c4ccc(Cl)cc4)c-3cc2=NCCCN2CCCCC2)cc1	8.18	–
Nc1nc(=O)n([C@H]2CC[C@@H](CO)O2)cc1F	-1.09	–
CC(C)C(C#N)c1ccc(Cl)cc1 (centres undefined)	3.41	–
C[C@H](CCC(=O)NCC(=O)O)[C@H]1CC[C@H]2[C@@H]3[C@H](O)C[C@@H]4C[C@H](O)CC[C@]4(C)[C@H]3C[C@H](O)[C@]12C	1.65	–
O=C(NCc1ccc(F)cc1)C(=O)c1c[nH]c2ccccc12	2.88	–
OCc1cc(Br)cc(Br)c1O	2.72	–
Clc1ccc2ccccc2c1	3.9	–
O=[N+]([O-])c1cccc(O)c1	–	97.1 mM (≈ 13500 µg/mL)
O=C1CC[C@@]2(O)[C@H]3Cc4ccc(O)c5c4[C@@]2(CCN3CC2CC2)[C@H]1O5	1.92	–
O=C(O)CCCCn1nc2ccccc2n1	0.94	–
CCOP(=S)(OCC)Oc1ccc(N)cc1	–	1.49 mM (≈ 390 µg/mL)
COP(=S)(OC)Oc1ccccc1	3.03	–
CCNc1nc(NC(C)(C)C)nc(OC)n1	3.1	–
Cc1cc(Cc2cc(Cl)ccc2Cl)c(Cl)cc1Cl	7.53	–
CCCCCCNC(=S)NC	2.31	–
CCOC(=O)CCC(=O)OCC	1.2	–
Brc1cccc(Oc2ccc(Br)c(Br)c2Br)c1	6.05	–
CN1CC=C(c2ccc(N)cc2)CC1	1.48	–
CC(C)(C)NSc1nc2ccccc2s1	4.67	–
Cc1cc(Cl)c(Cl)cc1Cc1c(Cl)cccc1Cl	7.15	–
Oc1ccc(C2CNCCc3c2cc(O)c(O)c3Cl)cc1 (centres undefined)	2.39	–

Compound	logP	solubility
COC(=O)c1cc2ccccc2[nH]1	2.45	–
ClCCCBr	2.18	–
Nc1ccc(O)c([N+](=O)[O-])c1	0.96	–
COC(=O)Nc1cccc(F)c1	2.21	–
CCNc1nc(N)nc(Cl)n1	1.15	3.86 mM (≈ 670 µg/mL)
C1=CCC=C1	–	27.2 mM (≈ 1800 µg/mL)
C=CC(=O)NCCCN1CCOCC1	-0.53	–
CN(CCO)C(=O)COC(=O)c1ccccc1O	0.86	–
c1ccc2c(c1)cc1ccc3cccc4ccc2c1c34	6.13	–
N#Cc1c(Cl)c(Cl)c(Cl)c(C#N)c1Cl	3.05	–
Nc1cccc(Cl)c1	–	42.3 mM (≈ 5400 µg/mL)
COc1cc(S(C)=O)ccc1-c1cn2cccnc2n1 (centres undefined)	0.63	–
O=[N+]([O-])c1ccc2c(c1)-c1ccc([N+](=O)[O-])c3cccc-2c13	4.44	–
CN1CCN(Cc2cccc(COc3ccccc3)c2)CC1	3.05	–
CC1=CCC(C(C)(C)O)CC1 (centres undefined)	2.98	–
CN(C(=O)C(Cl)Cl)c1ccc(OC(=O)c2ccccc2)cc1	2.56	–
O=C(OCCO)c1ccccc1	1.12	–
CCc1cc2c(s1)N(C)C(=O)CN=C2c1ccccc1Cl	3.18	–
ClCc1ccc(Cl)cc1	3.18	–
CCCCCCCCOC(=O)c1ccccc1C(=O)OCCCCCCCC	8.1	–
Cc1cc(C)c(N)cc1C	2.27	–
CCOC(=O)c1ccc(OCC)cc1	3.6	–
CC(C(=O)O)c1ccc2oc(-c3ccc(Cl)cc3)nc2c1 (centres undefined)	3.23	–

Compound	logP	solubility
CC(C)(C)c1ccc2oc(N(N)CCC#N)nc2c1	2.82	–
Clc1cc2c(Cl)cc(Cl)c(Cl)c2c(Cl)c1Cl	7.5	–
Cc1ncc(CO)c(C=O)c1O	–	2990 mM (≈ 500000 µg/mL)
O=C(O)Cc1ccccc1I	2.33	–
Cc1ccccc1C1=CCN(C)CC1	3.1	–
Cc1cc(C)c(NC(=O)CN(CC(=O)O)CC(=O)O)c(C)c1Br	0.11	–
CCCOC(=O)c1cc(=O)[nH]c(=O)[nH]1	1.1	–
O=C1CC(c2ccccc2)Oc2ccccc21 (centres undefined)	3.14	–
CCOC(=O)CCn1nnc2ccccc21	1.6	–
CC(=O)OCCC(C)C	2.25	–
CN(C)C(=S)N(C)C	0.49	–
C=COCCn1cnc2[nH]c(=O)n(C)c(=N)c21	-0.78	–
COc1ncnc2c1ncn2C1OC(COC(=O)c2ccccc2)C(O)C1OC(=O)c1ccccc1 (centres undefined)	3.39	–
CCC(=O)n1ncc2c(O)ncnc21	0.3	–
CC(=O)c1cccc(NCc2cnc3nc(N)nc(N)c3c2C)c1	1.46	–
CCOC(=O)c1ccccc1S(=O)(=O)NC(=O)Nc1nc(Cl)cc(OC)n1	2.5	–
CC(C)(C)C1CCCCC1	5.04	–
OCc1cccc(I)c1	2.55	–
O=c1[nH]c(=O)n([C@H]2C[C@H](O)[C@@H](CO)O2)cc1I	-0.96	–
BrCBr	1.7	–
COc1ccc(Cn2cncn2)cc1	1.1	–
CCn1cc(C(=O)NC(C)C(=O)OC)c(=O)c2ccc(C)nc21 (centres undefined)	2.47	–
Cn1ccc(=O)c(O)c1	-0.7	–

Same assay, conditions: 20 °C

Compound	solubility
CCN(C(=O)n1nnn(-c2ccccc2Cl)c1=O)C1CCCCC1	0.00658 mM (≈ 2.3 µg/mL)
Nc1ccc(Cl)c(Cl)c1	0.568 mM (≈ 92 µg/mL)
CC(C)OC(=O)c1cc(-c2nn(C)c(C(F)(F)F)c2Br)c(F)cc1Cl	0.000119 mM (≈ 0.053 µg/mL)
CCOC(C)(C)C	117 mM (≈ 12000 µg/mL)
CN(C)C(=N)N	18.6 mM (≈ 1620 µg/mL)
CCc1cccc(C)c1N(C(=O)CCl)C(C)COC (centres undefined)	1.87 mM (≈ 530 µg/mL)
CCc1ccc(C)nc1	99 mM (≈ 12000 µg/mL)
C=CCOC(C)=O	280 mM (≈ 28000 µg/mL)
COc1cc(C(Cl)(Cl)Cl)cc(Cl)n1	0.0433 mM (≈ 11.3 µg/mL)
C=Cc1ccccn1	262 mM (≈ 27500 µg/mL)
c1ccc(C2CO2)cc1 (centres undefined)	25 mM (≈ 3000 µg/mL)
CCOC(=O)C(O)(c1ccc(Cl)cc1)c1ccc(Cl)cc1	0.0351 mM (≈ 11.4 µg/mL)

Same assay, conditions: 23 °C

Compound	solubility
CCC(C#N)CC#N (centres undefined)	203 mM (≈ 22000 µg/mL)

Same assay, conditions: 23.0 °C

Compound	log10 OH rate constant (cm³/molecule/s)
O=C1C=CC(=O)O1	-11.8
C=C(F)F	-11.7
CCC(=O)C(O)CC (centres undefined)	-10.8
C=C1[C@H]2CC[C@@H]3[C@H]2C(C)(C)CCC[C@]13C	-10.3
O=C/C=C/c1ccccc1	-10.3

Same assay, conditions: 24 °C

Compound	solubility
CCCCN(CCCC)N=O	8.03 mM (≈ 1270 µg/mL)

Same assay, conditions: 25 °C

Compound	solubility
Clc1ccc(/N=N/c2ccccc2)cc1	0.00198 mM (≈ 0.43 µg/mL)
Clc1cc(Cl)c(-c2ccccc2Cl)cc1Cl	5.62e-05 mM (≈ 0.0164 µg/mL)
Cc1ccccc1N	155 mM (≈ 16600 µg/mL)
Nc1ccc(Cl)cc1	30.6 mM (≈ 3900 µg/mL)
O=C1c2ccccc2C(=O)c2c(O)cccc21	0.0379 mM (≈ 8.5 µg/mL)
CC(C)CCO[N+](=O)[O-]	3.3 mM (≈ 440 µg/mL)
O=[N+]([O-])c1cc(Cl)ccc1Cl	0.0729 mM (≈ 14 µg/mL)
Clc1ccc2ccccc2c1	0.0719 mM (≈ 11.7 µg/mL)
COc1ccc(C(c2ccc(OC)cc2)C(Cl)(Cl)Cl)cc1	0.000289 mM (≈ 0.1 µg/mL)
CCCCC(=O)O[C@]1(C(=O)CO)[C@@H](C)C[C@H]2[C@@H]3CCC4=CC(=O)C=C[C@]4(C)[C@@]3(F)[C@@H](O)C[C@@]21C	0.0195 mM (≈ 9.29 µg/mL)
CCOC(=O)COc1cc(Cl)c(Cl)cc1Cl	0.0141 mM (≈ 4.01 µg/mL)
COC(CN(C)C(=O)Nc1nnc(C(C)(C)C)s1)OC	13.6 mM (≈ 4100 µg/mL)
CCCCCCCCCCCCCCCCCCCC	6.72e-06 mM (≈ 0.0019 µg/mL)
CCCc1ccccc1	0.434 mM (≈ 52.2 µg/mL)
c1ccc2c(c1)cc1ccc3cccc4ccc2c1c34	6.42e-06 mM (≈ 0.00162 µg/mL)
Cc1ccccc1C	1.68 mM (≈ 178 µg/mL)
C[Se]C	224 mM (≈ 24400 µg/mL)
CCCCCCCCOC(=O)c1ccccc1C(=O)OCCCCCCCC	5.63e-05 mM (≈ 0.022 µg/mL)
O=C(O)c1cccc(C(=O)O)n1	29.9 mM (≈ 5000 µg/mL)
ClC1=C(Cl)[C@]2(Cl)[C@@H]3[C@@H]4C[C@@H]([C@H]5O[C@@H]45)[C@@H]3[C@@]1(Cl)C2(Cl)Cl (single isomer, unassigned)	0.00058 mM (≈ 0.221 µg/mL)
Clc1ccccc1-c1ccccc1	0.0256 mM (≈ 4.83 µg/mL)
CC(=O)OCC(=O)[C@H]1CC[C@H]2[C@@H]3CCC4=CC(=O)CC[C@]4(C)[C@H]3CC[C@]12C	0.0234 mM (≈ 8.73 µg/mL)
O=[N+]([O-])c1ccccc1	17 mM (≈ 2090 µg/mL)

Same assay, conditions: 25.0 °C

Compound	log10 OH rate constant (cm³/molecule/s)
CCNC(=O)OC	-11
COc1ccc([N+](=O)[O-])cc1	-11.6
FC(F)(F)I	-13.3
CC(=O)C(C)C	-11.5
C=CCOC(C)=O	-10.6
COC(F)(C(F)(F)F)C(F)(F)F	-13.8
FC(F)C(F)(F)C(F)(F)C(F)F	-14.3
Cc1ccccc1C	-10.9
C[Se]C	-10.2
CC(=O)CC1C(CC=O)C1(C)C (centres undefined)	-10.3
ClCBr	-13.1
CCCc1c(F)c(F)c(F)c(F)c1F	-11.5
C=Cc1ccccn1	-10.2
CCCC(=O)O	-11.6
FC(F)(Cl)C(Cl)Cl	-13.3
CCNC(=O)OCC	-10.8
BrCBr	-12.9

Same assay, conditions: 26 °C

Compound	solubility
Clc1cc2oc3cc(Cl)c(Cl)cc3c2cc1Cl	2.26e-06 mM (≈ 0.000692 µg/mL)

Same assay, conditions: 27.0 °C

Compound	log10 OH rate constant (cm³/molecule/s)
Oc1ccccc1O	-9.98
Cc1ccc(C=O)o1	-10.3

Same assay, conditions: 30 °C

Compound	solubility
Nc1ccc([N+](=O)[O-])cc1	5.27 mM (≈ 728 µg/mL)
Ic1ccccc1	1.67 mM (≈ 340 µg/mL)
BrCBr	68.5 mM (≈ 11900 µg/mL)
